# Experimental data reported in the NIST ThermoML archive (doi:10.1021/acs.jced.5b00807).
# ± gives the expanded uncertainty stated by the source.
# Columns and labels:
# [1] = DSC
# [2] = Molar enthalpy of transition or fusion; settings: Crystal 2; DSC
SMILES,Triple point temperature ([1]; Crystal) [K],Triple point temperature ([1]; Crystal 1) [K],Triple point temperature ([1]; Crystal 2) [K],Molar enthalpy of transition or fusion [2] [kJ/mol]
CC[N+](C)(C)C.O=S(=O)([N-]S(=O)(=O)C(F)(F)F)C(F)(F)F [ethyltrimethylammonium bis(trifluoromethylsulfonyl)imide],383 ± 4,–,–,–
CCCCCCCCCCCCCCCC[N+](C)(C)C.O=S(=O)([N-]S(=O)(=O)C(F)(F)F)C(F)(F)F,–,335 ± 4,319 ± 4,29.4 ± 3
CCCC[N+](CCCC)(CCCC)CCCC.O=S(=O)([N-]S(=O)(=O)C(F)(F)F)C(F)(F)F [tetrabutylammonium bis[(trifluoromethyl)sulfonyl]imide],365 ± 4,–,–,–
O=S(=O)([N-]S(=O)(=O)C(F)(F)F)C(F)(F)F.[Li+] [lithium bis((trifluoromethyl)sulfonyl)amide],–,508 ± 4,422 ± 4,11.9 ± 1.2
